Results on 20 molecules are retold here after patent US20240368150A1 (Hoffmann-La Roche Inc., priority 2021, published 2024).

Read-outs that look alike come from different tables or passages of the source.

For assay [1], the system named is primary human T-cells. The assay is described as follows: Proliferation assay after 5 days (CellTiter-Glo, CD3 stimulation; PBS counter screen). The format is cell-based. As to conditions: CD3 stimulation; for Emax: read-out: Emax proliferation (% activation); for EC50: primary human T-cells, CellTiter-Glo after 5 days, EC50 of fitted sigmoidal curve, read-out: Tcell Proliferation CD3 EC50. Put shortly: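 Read-out: CellTiter-Glo 2.0 luminescence (ATP ∝ cell number) at day 5 after compound addition. Compounds activating unstimulated cells or reducing viability flagged.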
In general terms: In ATP-based viability assays light output follows the ATP content of the culture.

The test system of assay [2] is primary human T-cells.
Setting [3] is: Homo sapiens, T-cell, 120 h, 5 days, normalized to reference compound A1 as stimulator control = 100%, DMSO neutral control.

Take `N[C@H]1CS(=O)(=O)c2cc(F)c(-c3nnc(C4(C(F)(F)F)CC4)o3)cc2N(Cc2ccc(Cl)cc2)C1=O` [Example 126, (3R)-3-amino-5-[(4-chlorophenyl)methyl]-8-fluoro-1,1-dioxo-7-[5-[1-(trifluoromethyl)cyclopropyl]-1,3,4-oxadiazol-2-yl]-2,3-dihydro-1λ^6,5-benzothiazepin-4-one]: in the assay with primary human T-cells [1] (setting [3]), the Emax worked out at 135%. In addition, the EC50 in the assay on primary human T-cells [1] (Homo sapiens, T-cell, 120 h) turned out to be 113 nM; in the assay with primary human T-cells [2] it was 62.4 nM.
Taken in the same sequence, the figures for `CC(C)(C)c1cc(-c2cc3c(cc2F)S(=O)(=O)C[C@H](N)C(=O)N3Cc2ccc(Cl)cc2)on1` [Example 52, (3R)-3-amino-7-(3-tert-butylisoxazol-5-yl)-5-[(4-chlorophenyl)methyl]-8-fluoro-1,1-dioxo-2,3-dihydro-1λ^6,5-benzothiazepin-4-one] were 133%, 1090 nM and 974 nM.
With `CC(C)(C#N)c1nnc(-c2ccc3c(c2)N(Cc2ccc(Cl)cc2)C(=O)[C@@H](N)CS3(=O)=O)o1` [Example 364, 2-[5-[(3R)-3-amino-5-[(4-chlorophenyl)methyl]-1,1,4-trioxo-2,3-dihydro-1λ^6,5-benzothiazepin-7-yl]-1,3,4-oxadiazol-2-yl]-2-methyl-propanenitrile], in the assay with primary human T-cells [1] (setting [3]), the Emax was 108%. For the same molecule, the EC50 in the assay on primary human T-cells [1] (Homo sapiens, T-cell, 120 h) worked out at 928 nM; in the assay with primary human T-cells [2], 981 nM.
Take `CC(O)(CNC(=O)c1nc(-c2cc3c(cc2F)S(=O)(=O)C[C@H](N)C(=O)N3Cc2ccc(Cl)cc2)no1)C(F)(F)F` (stereo partly drawn) [Example 301, 3-[(3R)-3-amino-5-[(4-chlorophenyl)methyl]-8-fluoro-1,1,4-trioxo-2,3-dihydro-1λ^6,5-benzothiazepin-7-yl]-N-(3,3,3-trifluoro-2-hydroxy-2-methyl-propyl)-1,2,4-oxadiazole-5-carboxamide]: the Emax with primary human T-cells [1] (setting [3]) amounted to 93%. Further, the EC50 stood at 2440 nM in the assay on primary human T-cells [1] (Homo sapiens, T-cell, 120 h) and 6140 nM with primary human T-cells [2].
In the same order, the values of `N[C@H]1CS(=O)(=O)c2cc(F)c(-c3noc(N4CCC(F)(F)CC4)n3)cc2N(Cc2ccc(Cl)cc2)C1=O` [Example 197, (3R)-3-amino-5-[(4-chlorophenyl)methyl]-7-[5-(4,4-difluoro-1-piperidyl)-1,2,4-oxadiazol-3-yl]-8-fluoro-1,1-dioxo-2,3-dihydro-1λ^6,5-benzothiazepin-4-one] are 112%, 118 nM and 226 nM.
Taken in the same sequence, the figures for `N[C@H]1CS(=O)(=O)c2cc(F)c(-c3noc(N4CCOC(F)(F)C4)n3)cc2N(Cc2ccc(Cl)cc2)C1=O` [Example 204, (3R)-3-amino-5-[(4-chlorophenyl)methyl]-7-[5-(2,2-difluoromorpholin-4-yl)-1,2,4-oxadiazol-3-yl]-8-fluoro-1,1-dioxo-2,3-dihydro-1λ^6,5-benzothiazepin-4-one] were 154%, 34.8 nM and 78.5 nM.
With `CCc1coc(CN2C(=O)[C@@H](N)CS(=O)(=O)c3cc(F)c(-c4nnc(C(C)(C)C)o4)cc32)n1` [Example 241, (3R)-3-amino-7-(5-tert-butyl-1,3,4-oxadiazol-2-yl)-5-[(4-ethyloxazol-2-yl)methyl]-8-fluoro-1,1-dioxo-2,3-dihydro-1λ^6,5-benzothiazepin-4-one], the Emax with primary human T-cells [1] (setting [3]) worked out at 73%. The EC50 was 2940 nM in the assay on primary human T-cells [1] (Homo sapiens, T-cell, 120 h) and > 10000 nM in the assay with primary human T-cells [2].
Consider `CC(C)(C)c1nnc(-c2cc3c(cc2F)S(=O)(=O)C[C@H](N)C(=O)N3Cc2ccc(OCCCCCCCCCCCNC(=O)CCC3=CC4=Cc5ccc(-c6ccc[nH]6)n5[B-](F)(F)[N+]4=C3)cc2)o1` [Example 189, 3-[2,2-difluoro-12-(1H-pyrrol-2-yl)-1-aza-3-azonia-2-boranuidatricyclo[7.3.0.03,7]dodeca-3,5,7,9,11-pentaen-5-yl]-N-[11-[4-[[(3R)-3-amino-7-(5-tert-butyl-1,3,4-oxadiazol-2-yl)-8-fluoro-1,1,4-trioxo-2,3-dihydro-1λ^6,5-benzothiazepin-5-yl]methyl]phenoxy]undecyl]propanamide], for which the Emax with primary human T-cells [1] (setting [3]) stood at 134%. Moreover, the EC50 in the assay with primary human T-cells [1] (Homo sapiens, T-cell, 120 h) was 680 nM; with primary human T-cells [2], > 2730 nM.
Taken in the same sequence, the figures for `CC(C)(CNC1CCOC1)c1nnc(-c2cc3c(cc2F)S(=O)(=O)C[C@H](N)C(=O)N3Cc2ccc(Cl)cc2)o1` (stereo partly drawn) [Example 157, (3R)-3-amino-5-[(4-chlorophenyl)methyl]-7-[5-[1,1-dimethyl-2-(tetrahydrofuran-3-ylamino)ethyl]-1,3,4-oxadiazol-2-yl]-8-fluoro-1,1-dioxo-2,3-dihydro-1λ^6,5-benzothiazepin-4-one] were 106%, 1010 nM and 2100 nM.
In the same order, the values of `CN1CC(n2nnc(-c3cc4c(cc3F)S(=O)(=O)C[C@H](N)C(=O)N4Cc3ccc(Cl)cc3)n2)CC(F)(F)C1` (stereo partly drawn) [Example 21, (3R)-3-amino-5-[(4-chlorophenyl)methyl]-7-[2-(5,5-difluoro-1-methyl-3-piperidyl)tetrazol-5-yl]-8-fluoro-1,1-dioxo-2,3-dihydro-1λ^6,5-benzothiazepin-4-one] are 127%, 293 nM and 666 nM.
Taken in the same sequence, the figures for `N[C@H]1CS(=O)(=O)c2cc(F)c(-c3nnc(C4CCC(F)(F)C4)o3)cc2N(Cc2ccc(Cl)cc2)C1=O` (stereo partly drawn) [Example 75, (3R)-3-Amino-5-[(4-chlorophenyl)methyl]-7-[5-(3,3-difluorocyclopentyl)-1,3,4-oxadiazol-2-yl]-8-fluoro-1,1-dioxo-2,3-dihydro-1λ^6,5-benzothiazepin-4-one] were 161%, 35.1 nM and 114 nM.
As for `N[C@H]1CS(=O)(=O)c2cc(F)c(-c3nnc(C45CNCCC4C5)o3)cc2N(Cc2ccc(Cl)cc2)C1=O` (stereo partly drawn) [Example 121, (3R)-3-amino-7-[5-(3-azabicyclo[4.1.0]heptan-1-yl)-1,3,4-oxadiazol-2-yl]-5-[(4-chlorophenyl)methyl]-8-fluoro-1,1-dioxo-2,3-dihydro-1λ^6,5-benzothiazepin-4-one], the Emax in the assay on primary human T-cells [1] (setting [3]) was found to be 72%. The EC50 was found to be 4760 nM in the assay on primary human T-cells [1] (Homo sapiens, T-cell, 120 h) and 6370 nM in the assay on primary human T-cells [2].
In the same order, the values of `CN(C)CC(C)(C)c1nnc(-c2cc3c(cc2F)S(=O)(=O)C[C@H](N)C(=O)N3Cc2ccc(Cl)cc2)o1` [Example 146, (3R)-3-amino-5-[(4-chlorophenyl)methyl]-7-[5-[2-(dimethylamino)-1,1-dimethyl-ethyl]-1,3,4-oxadiazol-2-yl]-8-fluoro-1,1-dioxo-2,3-dihydro-1λ^6,5-benzothiazepin-4-one] are 90%, 189 nM and 260 nM.
In the same order, the values of `CCn1cnc(-c2cc3c(cc2F)S(=O)(=O)C[C@H](N)C(=O)N3Cc2ccc(Cl)cc2)n1` [Example 285, (3R)-3-amino-5-[(4-chlorophenyl)methyl]-7-(1-ethyl-1,2,4-triazol-3-yl)-8-fluoro-1,1-dioxo-2,3-dihydro-1λ^6,5-benzothiazepin-4-one] are 60%, 5490 nM and 9370 nM.
In the case of `CC(C)(C)c1nnc(-c2ccc3c(c2)N(Cc2ccc(OC4CCOCC4)cc2)C(=O)[C@@H](N)CS3(=O)=O)o1` [Example 436, (3R)-3-amino-7-(5-tert-butyl-1,3,4-oxadiazol-2-yl)-1,1-dioxo-5-[(4-tetrahydropyran-4-yloxyphenyl)methyl]-2,3-dihydro-1λ^6,5-benzothiazepin-4-one], in the assay with primary human T-cells [1] (setting [3]), the Emax came to 66%. For the same molecule, the EC50 with primary human T-cells [1] (Homo sapiens, T-cell, 120 h) came to 940 nM; in the assay on primary human T-cells [2], 4230 nM.
Taken in the same sequence, the figures for `CCn1ccc(-c2cc3c(cc2F)S(=O)(=O)C[C@H](N)C(=O)N3Cc2ccc(Cl)cc2)n1` [Example 280, (3R)-3-amino-5-[(4-chlorophenyl)methyl]-7-(1-ethylpyrazol-3-yl)-8-fluoro-1,1-dioxo-2,3-dihydro-1λ^6,5-benzothiazepin-4-one] were 52%, 19500 nM and 852 nM.
In the same order, the values of `CC(C)(CN1CCS(=O)(=O)CC1)c1nnc(-c2cc3c(cc2F)S(=O)(=O)C[C@H](N)C(=O)N3Cc2ccc(Cl)cc2)o1` [Example 138, (3R)-3-amino-5-[(4-chlorophenyl)methyl]-7-[5-[2-(1,1-dioxo-1,4-thiazinan-4-yl)-1,1-dimethyl-ethyl]-1,3,4-oxadiazol-2-yl]-8-fluoro-1,1-dioxo-2,3-dihydro-1λ^6,5-benzothiazepin-4-one] are 120%, 1510 nM and 3470 nM.
Taken in the same sequence, the figures for `CC(C)(O)Cn1nnc(-c2cc3c(cc2F)S(=O)(=O)C[C@H](N)C(=O)N3Cc2ccc(Cl)cc2)n1` [Example 27, (3R)-3-amino-5-[(4-chlorophenyl)methyl]-8-fluoro-7-[2-(2-hydroxy-2-methyl-propyl)tetrazol-5-yl]-1,1-dioxo-2,3-dihydro-1λ^6,5-benzothiazepin-4-one] were 103%, 2050 nM and 1230 nM.
On to `COC(F)(c1nc(-c2cc3c(cc2F)[S+]([O-])C[C@H](N)C(=O)N3Cc2ccc(Cl)cc2)no1)C(F)(F)F` (single isomer, unassigned; epimer b) [Example 339], for which, in the assay on primary human T-cells [1] (5 days, normalized to reference compound A1 as stimulator control = 100%, DMSO neutral control), the “Emax proliferation (% activation)” value was 141 % activation. Besides, the figures for the EC50 in the assay on primary human T-cells [1] and in the assay with primary human T-cells [2] were 421 nM and 1300 nM, respectively.
Turning to `N[C@H]1CS(=O)(=O)c2cc(F)c(-c3nnc(-c4ccccc4)o3)cc2N(Cc2ccc(Cl)cc2)C1=O` [Example 97, (3R)-3-amino-5-[(4-chlorophenyl)methyl]-8-fluoro-1,1-dioxo-7-(5-phenyl-1,3,4-oxadiazol-2-yl)-2,3-dihydro-1λ^6,5-benzothiazepin-4-one], in the assay with primary human T-cells [1] (setting [3]), the Emax is 115%. Moreover, the EC50 turned out to be 520 nM in the assay with primary human T-cells [1] (Homo sapiens, T-cell, 120 h) and 1040 nM with primary human T-cells [2].
